Consider three molecules from patent publication US7531530B2, “Therapeutic compounds” (Cancer Research Technology Limited, priority 2003, dated 2009).

For one data set, the target named is T1, PARP (pbl parp) (Mus musculus, UniProt P11103).
T1 construct: from tissue; host or cells: peripheral blood lymphocytes of treated mice
Kind of data set: PARP activity in peripheral blood lymphocytes of formula I-phosphate treated mice (10H antibody). The format is in vivo.

The next data set has as its target PARP (tumour PARP) (Homo sapiens, UniProt P09874). The data set can be described thus: PARP activity in SW620 tumour homogenates of formula I-phosphate treated mice (10H antibody). The format is in vivo.
A short description of data set [1]: Plasma and tumour pharmacokinetics in mice bearing SW620 xenografts. The format is in vivo.
Another data set in a line: Solubility. The format is physicochemical. The note with it: phosphate salt versus parent compound.
The target of data set [2] is T2, PARP (Mus musculus, UniProt P11103).
T2 construct: endogenous in cells; host or cells: L1210 cells
T2 sequence (P11103 whole entry): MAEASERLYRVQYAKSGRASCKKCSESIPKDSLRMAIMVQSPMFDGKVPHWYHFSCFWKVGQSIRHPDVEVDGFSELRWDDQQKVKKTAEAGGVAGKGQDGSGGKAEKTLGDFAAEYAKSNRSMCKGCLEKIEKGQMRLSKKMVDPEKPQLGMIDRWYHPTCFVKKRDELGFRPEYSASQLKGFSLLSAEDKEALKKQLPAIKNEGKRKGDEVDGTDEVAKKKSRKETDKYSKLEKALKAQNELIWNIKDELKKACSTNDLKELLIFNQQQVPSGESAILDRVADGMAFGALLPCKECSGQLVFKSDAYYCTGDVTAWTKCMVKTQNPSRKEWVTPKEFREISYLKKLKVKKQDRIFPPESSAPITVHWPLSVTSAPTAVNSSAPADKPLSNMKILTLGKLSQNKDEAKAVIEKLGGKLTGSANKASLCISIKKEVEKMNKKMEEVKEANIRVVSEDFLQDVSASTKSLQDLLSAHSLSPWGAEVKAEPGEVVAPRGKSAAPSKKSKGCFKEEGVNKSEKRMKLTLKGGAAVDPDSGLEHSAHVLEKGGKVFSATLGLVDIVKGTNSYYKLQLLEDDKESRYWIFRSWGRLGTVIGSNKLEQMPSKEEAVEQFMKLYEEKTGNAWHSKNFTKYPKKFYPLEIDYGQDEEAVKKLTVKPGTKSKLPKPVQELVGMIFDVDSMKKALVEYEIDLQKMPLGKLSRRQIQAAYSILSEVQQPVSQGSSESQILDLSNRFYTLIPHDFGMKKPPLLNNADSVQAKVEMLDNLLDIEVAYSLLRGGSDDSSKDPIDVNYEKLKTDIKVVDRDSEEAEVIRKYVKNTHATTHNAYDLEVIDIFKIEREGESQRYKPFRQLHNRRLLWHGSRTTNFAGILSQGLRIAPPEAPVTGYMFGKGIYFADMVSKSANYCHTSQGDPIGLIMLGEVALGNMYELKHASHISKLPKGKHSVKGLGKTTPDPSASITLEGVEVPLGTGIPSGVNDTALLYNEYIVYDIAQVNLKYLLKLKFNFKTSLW
The data set can be described thus: Cellular PARP activity assay, permeabilised L1210 cells. The format is cell-based. The note with it: L1210 cells permeabilised with digitonin prior to adding the inhibitor. The protocol: (§1) Exponentially growing cells were exposed to 1% DMSO in culture medium (control) or a compound of formula I or III in 1% DMSO at the concentrations indicated in FIG. 4 to cells permeabilised with digitonin, or intact cells for 20 minutes prior to washing and digitonin-permeabilization. PARP activity was measured by incorporation of a [32P] labelled NAD+ substrate into TCA precipitateble polymers after stimulation by the addition of a blunt-ended oligonucleotide and compared with non-oligonucleotide-stimulated cells. PARP activity in tumour homogenates (1 in 40 in isotonic buffer) from formula III-treated mice was measured in the same way. PARP activity in pbls and tumour homogenates from formula I-phosphate treated mice was measured by immunological detection of polymer using the 10H antibody. Briefly, tumour homogenates diluted to up to 1:1000 in isotonic buffer were incubated with 350 μM NAD for 6 min and blotted onto nitrocellulose membrane. The poly(ADP-ribose) (PAR) polymer formation was quantified by chemiluminescence detection using a Fuji LAS3000 UV Illuminator by reference to serial dilutions of a PAR standard, following incubation with 10H antibody to PAR and a secondary anti-mouse antibody.

The next data set addresses T3, PARP (tumour PARP act) (Homo sapiens, UniProt P09874).
T3 construct: from tissue; host or cells: SW620 xenograft tumour homogenates from treated mice
Kind of data set: PARP activity in SW620 tumour homogenates of formula III-treated mice ([32P] NAD+ incorporation). The class given is in vivo. The note with it: formula III 10 mg/kg intraperitoneal; SW620 xenografts. The protocol: as §1

A further data set has as its system SW620 xenografts. The data set can be described thus: Tumour growth in mice bearing SW620 xenografts. The conditions noted are these: formula III 15 mg/kg daily×5 in conjunction with temozolomide. The class given is in vivo. The source says:
FIG. 8 is a graph showing the tumour growth (median relative tumour volume) in mice bearing SW620 xenografts following treatment with formula III in combination with temozolomide (TMZ) and with TMZ alone;
FIG. 9 is a graph showing the tumour growth (median relative tumour volume) of mice bearing SW620 xenografts following treatment with formula I-phosphate in combination with temozolomide (TMZ) and with formula I-phosphate and TMZ alone;
However, shortly after this time the tumour size begins to increase.

Data set [3] deals with T2, PARP. The data set can be described thus: Cellular PARP activity assay, intact L1210 cells. The class given is cell-based. The conditions noted are these: intact L1210 cells exposed for 20 minutes prior to permeabilisation. The protocol:
as §1

[4] abbreviates: formula I-phosphate 1 mg/kg, compared with 10 mg/kg.
Where [5] appears, read: formula I-phosphate 10 mg/kg intraperitoneal, 24 hr after administration.
[6] abbreviates: formula I-phosphate 10 mg/kg intraperitoneal, thirty minutes after administration.
Setting [7] is: formula III 10 mg/kg intraperitoneal.

The structures appear in SMILES notation.

T1 sequence (P11103 whole entry): as above
Chain of PARP (tumour PARP) (P09874 whole entry): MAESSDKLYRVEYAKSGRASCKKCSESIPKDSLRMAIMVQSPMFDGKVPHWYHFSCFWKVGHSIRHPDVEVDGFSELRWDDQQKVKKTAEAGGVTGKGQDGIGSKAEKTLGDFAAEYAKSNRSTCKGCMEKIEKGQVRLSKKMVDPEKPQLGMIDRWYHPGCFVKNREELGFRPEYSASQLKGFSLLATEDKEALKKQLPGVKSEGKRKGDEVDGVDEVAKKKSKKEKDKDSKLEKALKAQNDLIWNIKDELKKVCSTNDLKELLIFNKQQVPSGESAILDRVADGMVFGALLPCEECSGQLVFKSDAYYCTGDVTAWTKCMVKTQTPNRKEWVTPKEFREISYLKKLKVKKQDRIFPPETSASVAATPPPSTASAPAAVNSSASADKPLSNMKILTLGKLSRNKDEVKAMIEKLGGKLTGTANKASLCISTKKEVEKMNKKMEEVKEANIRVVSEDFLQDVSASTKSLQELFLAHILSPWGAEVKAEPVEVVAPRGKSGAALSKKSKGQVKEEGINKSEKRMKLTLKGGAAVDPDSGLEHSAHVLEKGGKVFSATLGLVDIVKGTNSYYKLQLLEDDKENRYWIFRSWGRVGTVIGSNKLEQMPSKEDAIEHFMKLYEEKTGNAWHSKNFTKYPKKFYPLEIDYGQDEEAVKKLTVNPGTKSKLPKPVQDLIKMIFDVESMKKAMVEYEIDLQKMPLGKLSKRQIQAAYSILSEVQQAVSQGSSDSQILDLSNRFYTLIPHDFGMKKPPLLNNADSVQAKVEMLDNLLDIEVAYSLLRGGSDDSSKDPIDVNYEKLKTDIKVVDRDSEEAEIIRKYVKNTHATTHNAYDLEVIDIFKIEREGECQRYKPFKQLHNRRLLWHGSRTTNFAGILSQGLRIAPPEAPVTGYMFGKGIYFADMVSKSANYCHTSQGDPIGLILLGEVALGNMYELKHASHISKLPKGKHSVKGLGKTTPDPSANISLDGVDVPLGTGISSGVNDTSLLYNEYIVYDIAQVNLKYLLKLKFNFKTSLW
T3 sequence (P09874 whole entry): as above

Consider `CNCc1ccc(-c2[nH]c3cc(F)cc4c3c2CCNC4=O)cc1.O=P(O)(O)O` [formula I-phosphate], for which, on PARP (pbl parp) (setting [4]), the “effect on PARP activity in pbls” value is “less pronounced effect”. Moreover, at PARP (pbl parp) (formula I-phosphate 10 mg/kg intraperitoneal, up to 24 hr), the “PARP activity in pbls” value is reported as under 50 % control. In addition, at PARP (tumour PARP) (setting [4]), the “effect on PARP activity in tumour” value was “less pronounced effect”. In addition, the “PARP activity in tumour” value on PARP (tumour PARP) (formula I-phosphate 10 mg/kg intraperitoneal, up to 24 hr, SW620 xenografts) was under 50 % control. In data set [1] (setting [4]), the “plasma concentration of formula I” value is “lower levels” and the “tumour concentration of formula I” value is “lower levels”. For the same molecule, the “decrease of concentration with time, plasma versus tumour” value in data set [1] (formula I-phosphate 10 mg/kg intraperitoneal) is reported as “more rapidly in the plasma than in the tumour”. Also, in data set [1] (setting [5]), the “plasma concentration of parent compound (formula I)” value is given as “none could be detected” and the “tumour concentration of parent compound (formula I)” value is on record as “significant levels were detectable”. Further, in data set [1] (setting [6]), the “plasma concentration of parent compound (formula I)” value is “high levels” and the “tumour concentration of parent compound (formula I)” value is on record as “high levels”. The “solubility relative to formula I” value in the data set “Solubility” is “increases the solubility”.
In the case of `CN(C)Cc1ccc(-c2nc3cccc4c3n2CCNC4=O)cc1` [formula III], in data set [1] (setting [7]), the “distribution to the tumour” value is recorded as “distributes well to the tumour” and the “retention in tumour versus plasma with time” value is “preferentially retained with time”. Besides, the “PARP inhibitory activity, formula I compared with formula III” value at PARP [2] is recorded as “no difference”. Also, the “PARP activity in the tumour” value on PARP (tumour PARP act) is “inhibits PARP activity”. Also, the “tumour outcome at autopsy at the end of the experiment” value with SW620 xenografts is listed as “complete tumour regression”.
For `CNCc1ccc(-c2[nH]c3cc(F)cc4c3c2CCNC4=O)cc1` [formula I], the entries for the “PARP inhibitory activity, formula I compared with formula III” value on PARP [3] and on PARP [2] were “more potent” and “no difference”, respectively.
